Reference: paper PMC10247784, “Physiological activation of human and mouse bitter taste receptors by bile acids” (Communications Biology, 2023)
Entries after “also recorded” stand apart in the source; their conditions may differ.

Test system: mouse Tas2rs
Test: Calcium imaging screening of 34 mouse bitter taste receptors
Assay type: cell-based
Settings: screening of 34 mouse receptors; listed as CDCA
Experimental: This set of bile acids was chosen because of their commercial availability in high purities, their diversity within the class of bile acids and their previous detection and quantitation in human blood. Stock solutions were prepared in DMSO. […] Maximal applied concentrations are due to solubility problems or receptor-independent artefacts during measurement at high bile acid concentrations (Table 1, Table 2)[12],[58]. […]
Cells were loaded using the calcium-sensitive fluorescent dye Fluo-4-AM (Abcam, Cambridge, Great Britain) in the presence of 2.5 mM probenecid (Sigma-Aldrich, Steinheim, Germany) the day after transfection[13],[41]. […] For automated agonist application and measurement of fluorescence changes, a FLIPR^TETRA device (Molecular Devices, San José, United States) was used. […]
Measured data were negative control corrected by subtracting the signal of the mock-transfected cells and exported to Microsoft Excel using the FLIPR software ScreenWorks 4.2. In Microsoft Excel software, standardization of maximum fluorescence intensities to the basal fluorescence and normalization to the buffer-only control was done to calculate the relative fluorescence changes (ΔF/F). […]

## C[C@H](CCC(=O)O)[C@H]1CC[C@H]2[C@@H]3[C@H](O)C[C@@H]4C[C@H](O)CC[C@]4(C)[C@H]3CC[C@]12C [Chenodeoxycholic Acid, chenodeoxycholic acid]
  Response of mouse Tas2rs: did not activate any; also recorded: did not obtain any response
